Reference: patent US7666660B2, “Method for mixing inside a capillary and devices for achieving same” (priority 2005, dated 2010)

Target: β-galactosidase (β-Gal) (Escherichia coli, UniProt P00722)
Details: substrate of β-galactosidase, components mixed in a vial, 35 min incubation, 25° C., pH 7.2 phosphate buffer with 1 mM MgCl2, Michaelis-Menten equation
Experimental: β-galactosidase (β-Gal) (isolated from E. coli), fluorescein mono-β-D-galactopyranoside (FMG), and fluorescein sodium salt were purchased from Sigma-Aldrich (Oakville, ON, Canada). All other chemicals were from Sigma-Aldrich, Caledon, or BDH (Toronto, ON, Canada), and were of analytical grade. Stock solutions of 4.4 mM FMG and 5 nM β-Gal were prepared with 10 mM phosphate (pH 7.2) buffer containing 1 mM MgCl2, and stored at −80° C. The 10 nM phosphate (pH 7.2) buffer containing 1 mM MgCl2 was also used for enzyme reactions, and for capillary electrophoresis as a run buffer. […]
All capillary electrophoresis (CE) experiments were carried out with a P/ACE MDQ instrument equipped with a laser-induced fluorescent (LIF) detector (Beckman-Coulter; Fullerton Calif.). Fluorescence was excited by a 488-nm line of an argon-ion laser (5 mW). […]
6 μL of 1 μM FMG, 3 μL of 1 nM β-Gal, and 9 μL of 10 mM phosphate buffer containing 1 mM MgCl2 were mixed in a 200 μL reservoir. […] The reaction mixture was directly used for quantifying the amount of the product by CE. […] The identification and quantitative assay of products were preformed by the addition of fluorescein (internal reference) to the reaction mixture.
The Km and Kcat values were determined using an approach previously described by Berezovski et al. (Electrophoresis, 23:3398-403, 2002). […]

Chain of β-galactosidase (β-Gal) (P00722 2-1024): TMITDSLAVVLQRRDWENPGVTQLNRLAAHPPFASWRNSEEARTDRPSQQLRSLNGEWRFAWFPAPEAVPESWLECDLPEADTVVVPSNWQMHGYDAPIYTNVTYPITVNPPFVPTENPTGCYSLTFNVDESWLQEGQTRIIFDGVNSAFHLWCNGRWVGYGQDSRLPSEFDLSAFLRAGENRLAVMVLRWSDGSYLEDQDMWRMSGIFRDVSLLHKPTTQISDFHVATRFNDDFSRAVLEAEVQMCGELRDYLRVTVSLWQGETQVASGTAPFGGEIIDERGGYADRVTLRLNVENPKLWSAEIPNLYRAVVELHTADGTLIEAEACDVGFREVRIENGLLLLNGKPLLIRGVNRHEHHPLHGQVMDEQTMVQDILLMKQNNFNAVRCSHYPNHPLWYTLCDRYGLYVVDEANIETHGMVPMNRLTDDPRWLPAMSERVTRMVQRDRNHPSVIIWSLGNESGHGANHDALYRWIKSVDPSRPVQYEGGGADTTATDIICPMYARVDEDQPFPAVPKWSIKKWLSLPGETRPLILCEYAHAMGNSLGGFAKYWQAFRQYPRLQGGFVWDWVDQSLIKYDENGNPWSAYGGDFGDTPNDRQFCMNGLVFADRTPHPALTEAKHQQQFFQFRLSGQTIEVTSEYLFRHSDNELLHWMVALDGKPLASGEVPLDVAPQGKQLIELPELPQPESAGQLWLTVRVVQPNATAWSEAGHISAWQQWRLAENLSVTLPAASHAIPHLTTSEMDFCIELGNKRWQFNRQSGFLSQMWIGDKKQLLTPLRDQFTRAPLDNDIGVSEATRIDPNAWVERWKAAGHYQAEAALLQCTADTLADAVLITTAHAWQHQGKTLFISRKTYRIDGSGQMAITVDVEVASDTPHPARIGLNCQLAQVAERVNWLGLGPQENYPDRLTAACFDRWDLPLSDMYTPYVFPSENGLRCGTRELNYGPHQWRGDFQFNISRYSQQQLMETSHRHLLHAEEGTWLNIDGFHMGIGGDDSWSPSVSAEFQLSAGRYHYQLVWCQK

SMILES: O=C1OC2(c3ccc(O)cc3Oc3cc(O[C@@H]4O[C@H](CO)[C@H](O)[C@H](O)[C@H]4O)ccc32)c2ccccc21 (stereo partly drawn) [fluorescein-mono-β-D-galactopyranoside, fluorescein mono-β-D-galactopyranoside]
- Km (read-out: Michaelis constant, Km): 0.9 µM
- catalytic rate constant, kcat: 0.6 s⁻¹
